Values quoted from earlier work, collected in patent US5935597A, “Drug delivery devices and methods for treatment of viral and microbial infections and wasting syndromes” (Cryopreservation Technologies CC, priority 1995, dated 1999).

Assays:
[1] = test system: Human Herpes Virus 6 (HHV-6); conditions: certain cultured cell lines; cited from earlier work
human cancer = conditions: cited from earlier work
HIV [2] = conditions: certain cultured cell lines; cited from earlier work
human cancer xenografts = conditions: intraperitoneal injection, nude mice; cited from earlier work
HIV [3] = conditions: cited from earlier work
[4] = appetite enhancers, wasting syndromes; cited from earlier work
mouse sarcoma allograft = conditions: in vivo; cited from earlier work
HIV-2 = conditions: cells infected with HIV-2 isolates, in vitro; cited from earlier work
HIV-1 = conditions: cells infected with HIV-1 isolates, in vitro; cited from earlier work

## C[S+](C)[O-] [DMSO, dimethylsulfoxide]
[1]
  in vitro replication of HHV-6: inhibit in vitro replication of HIV and Human Herpes Virus 6 (HHV-6)
Human cancer; human cancer patients
  objective response: no objective response
HIV [2]
  in vitro replication of HIV: inhibit in vitro replication of HIV

## CNC=O [NMF, N-methylformamide]
Human cancer; oral, human patients with cancer of the head and neck (Planting et al.)
  anticancer activity: only minimal activity
Human cancer; oral, human patients with cancer of the head and neck (Vogel et al.)
  hepatotoxicity and response: hepatotoxicity with no beneficial response
Human cancer xenografts
  growth of human cancer xenografts: slow the growth of certain human cancer xenografts

## Cc1cn([C@H]2C=C[C@@H](CO)O2)c(=O)[nH]c1=O [d4T, stavudine]
HIV [3]
  anti-HIV activity: active against HIV

## CCCCCc1cc(O)c2c(c1)OC(C)(C)[C@@H]1CCC(C)=C[C@@H]21 [dronabinol]
[4]
  weight gain: tended to gain only fat and not overall body mass

## NC=O [formamide]
Mouse sarcoma allograft
  toxicity: toxic side-effects

## CC(=O)O[C@]1(C(C)=O)CC[C@H]2[C@@H]3C=C(C)C4=CC(=O)CC[C@]4(C)[C@H]3CC[C@@]21C [megestrol acetate]
[4]
  weight gain: tended to gain only fat and not overall body mass

B1: MIP-1α: chemokine secreted by CD8+ T cells (protein, UniProt P10147 24-92, looked up)
C-C motif chemokine 3: SLAADTPTACCFSYTSRQIPQNFIADYFETSSQCSKPGVIFLTKRSRQVCADPSEEWVQKYVSDLELSA
HIV-2
  HIV-1 p24 antigen production: suppress HIV-1 p24 antigen production
HIV-1
  HIV-1 p24 antigen production: suppress HIV-1 p24 antigen production

B2: RANTES: chemokine secreted by CD8+ T cells (protein, UniProt P13501 24-91, looked up)
C-C motif chemokine 5: SPYSSDTTPCCFAYIARPLPRAHIKEYFYTSGKCSNPAVVFVTRKNRQVCANPEKKWVREYINSLEMS
HIV-2
  HIV-1 p24 antigen production: suppress HIV-1 p24 antigen production
HIV-1
  HIV-1 p24 antigen production: suppress HIV-1 p24 antigen production

B3: MIP-1β: chemokine secreted by CD8+ T cells (protein, UniProt P13236 24-92, looked up)
C-C motif chemokine 4: APMGSDPPTACCFSYTARKLPRNFVVDYYETSSLCSQPAVVFQTKRSKQVCADPSESWVQEYVYDLELN
modifications: ends and bridges not checked
notes: chemokine secreted by CD8+ T cells
HIV-2
  HIV-1 p24 antigen production: suppress HIV-1 p24 antigen production
HIV-1
  HIV-1 p24 antigen production: suppress HIV-1 p24 antigen production
